Results published in patent US20170049843A1, “Hepatocyte Growth Factor Mimics as Therapeutic Agents” (WASHINGTON STATE UNIVERSITY, priority 2011, published 2017).
Where a SMILES comes first, the peptide text is derived from it. [ ]: non-standard residue; d: D form. The star is where a group is joined. Nle = CCCC[C@H](N)C(=O)O; Hexanoyl = CCCCCC(=O)*; Ahx = NCCCCCC(=O)O

Legend:
Assay type in all cases: cell-based, rat
c-Met receptor [1] = assay: Spinogenesis after c-Met knock-down with shRNA; settings: 10 ng/ml HGF or 10^−12 M analog
Text: (§1) Neurons were transfected with mRFP-β-actin on day in vitro 6 (DIV6) using LipofectAMINE™ 2000 (Invitrogen) according to the manufacturer's protocol. This protocol yielded the desired 3-5% transfection efficiency thus enabling the visualization of individual neurons. Higher efficiencies obscured the dendritic arbor of individual neurons. Expression of fluorescently tagged actin allowed clear visualization of dendritic spines, as dendritic spines are enriched in actin. On DIV7 the cells were treated with vehicle (H20) or peptides (as described in the text) added to media. On DIV12 the neurons were fixed (4% paraformaldehyde, 3% sucrose, 60 mM PIPES, 25 mM HEPES, 5 mM EGTA, 1 mM MgCl2, pH 7.4) for 20 min at room temperature and mounted. Slides were dried for at least 20 hours at 4° C. and fluorescent images were obtained with Slidebook 4.2 Digital Microscopy Software driving an Olympus IX81 inverted confocal microscope with a 60× oil immersion lens, NA 1.4 and resolution 0.280 μm Dendritic spine density was measured on primary and secondary dendrites at a distance of at least 150 μm from the soma. Five 50 μm long segments of dendrite from at least 10 neurons per data point were analyzed for each data point reported. Each experiment was repeated at least three times using independent culture preparations. Dendrite length was determined using the National Institutes of Health's Image J 1.41o program (NIH, Bethesda, Md.) and the neurite tracing program Neuron J (Meijering, Jacob et al. 2004) Spines were manually counted.
A target sequence for c-Met was designed using RNAi central design program (see the website located at cancan.cshl.edu/). […]. The shRNA was transfected into cells using the lipofectamine method described above. Verification of receptor knockdown was done by creating a c-Met-6-Myc tagged gene product using the Gateway cloning system (Invitrogen). The Met protein coding sequence was cloned from rat whole brain cDNA using primers obtained from Integrated DNA Technologies, Inc. The amplified product was gel purified and a band corresponding to […] band excised and cloned into a PCAGGS-6-Myc destination vector (Gateway).
To irrefutably confirm that the AngIV analogues act via the HGF/c-met system an shRNA for c-Met was employed to knock-down the receptor. Dissociated hippocampal neurons were transfected with mRFP-β-actin and shMet RNA and receptor knock-down was allowed to take place for 48 hours prior to stimulating with 0.5 μg (per well) HGF (10 ng/ml), Dihexa or Nle1-AngIV (both at 10^−12 M). Longer exposure appeared to be detrimental or toxic to the neurons. Effective c-Met receptor knock-down was verified by transfecting human embryonic kidney (HEK) cells with (0.1 μg) 6-Myc-tagged c-Met, (0.1 μg)shMet or mRFP-β-actin alone. Successful knockdown was confirmed by immunoblotting for Myc tagged c-met using an anti-Myc antibody (FIG. 19).

hippocampal neurons [2] = assay: Whole-cell recordings of mEPSCs in dissociated hippocampal neurons; parameters: mean mEPSC frequency: unit not given beside the values; settings: 5 days
hippocampal neurons [3] = assay: Dendritic spine head width in hippocampal neurons; settings: 10^−12 M; control 0.67 μm
Text: as §1, with “On DIV12 the neurons were fixed (4% paraformaldehyde, 3% sucrose, 60 mM PIPES, 25 mM HEPES, 5 mM EGTA, 1 mM MgCl2, pH 7.4) for 20 min at room temperature and mounted.” left out, “Each experiment was repeated at least three times using independent culture preparations.” left out, “counted. […]” for “counted.”

c-Met receptor [4] = assay: c-Met phosphorylation in acute adult hippocampal slices; settings: 30 minutes
Text: Adult Sprague-Dawley rats (250 g+) obtained from Harlan Laboratories (Ca, USA) were anesthetized with isofluorane (Vet One™, MWI, Meridian, Id., USA) and decapitated. The brain was rapidly removed and placed into ice-chilled artificial cerebrospinal fluid (aCSF) for approximately 30 s. Both hemispheres were separated by a mid-saggital cut and both hippocampi removed. Slices were sectioned cross- and length-wise (400 μm) to ensure penetrability of the drug, using a McIlwain tissue chopper (Brinkmann, Gomshall, UK) and transferred to a gassed (95% O2/5% CO2) incubation chamber containing aCSF for 90 minutes at room temperature. Slices were transferred to fresh tubes, aCSF was removed by careful suctioning and replaced with aCSF containing vehicle (aCSF+aCSF), 100 ng/ml with carrier free adult recombinant Hepatocyte Growth Factor (HGF) (R and D Systems, MN, USA) in aCSF, 10^−10 M Hinge (Harding lab), […], 10^−10 M Dihexa (Harding lab) in aCSF, 10^−12 M Dihexa in aCSF or 50 ng/ml HGF+10^−12 M Dihexa in aCSF for 30 minutes at 37° C. with gentle rocking. aCSF was removed and the slices were lysed using RIPA buffer (Upstate/Milipore, Billerica, Mass.) and inhibitor Cocktails I and II (Sigma, St. Louis, Mo.), sonicated on ice and clarified by centrifugation for 30 minutes, 13,000 rpm at 4° C. The supernatant was removed from the pellet and stored at −80° C. or processed immediately for gel electrophoresis.
Protein concentration of the samples was quantified using the BCA method (Pierce, Rockford, Ill.) following the manufacturers protocol. Samples were added to SDS-PAGE buffer and boiled for 10 min. before loading onto a 4-12% Bis-Tris pre-cast gel (Invitrogen, Carlsbad, Calif.) for electrophoresis. Proteins were transferred onto PVDF membranes (Bio Rad, Hercules, Calif.) and blocked with AquaBlock™ (New England Biolabs, Ipswich, Mass.) for 1 hour at room temperature (RT). Primary antibody incubation was done in AquaBlock™ with rabbit anti-Met and […] phospho-Met (Tyr1234/1235) (1:1000, Cell Signaling Technology, Danvers, Mass.) overnight at 4° C. Alternating washes were done with PBS and PBST. Secondary antibody (IRDye) (Rockland, Gilbertsville, Pa.) incubations were done in AquaBlock™ for one hour at RT. Blots were imaged using LI-COR Odyssey Infrared Imaging System (LI-COR Biosciences, Lincoln, Nebr.).

[5] = neurons transfected with mRFP-β-actin alone, 48 hours, control 13.2
[6] = neurons transfected with mRFP-β-actin and shMet, control 13.5
[7] = non-saturating doses: HGF 50 ng/ml, Dihexa 10^−12 M
[8] = saturating doses: HGF 100 ng/ml, Dihexa 10^−10 M
[9] = 10^−12 M Dihexa or 10 ng/ml HGF, control 3.55±0.60
[10] = Hinge 10^−12 M, HGF 10 ng/ml, Dihexa 10^−12 M, alone or combined, vehicle 5.31±0.35

CCCC[C@H](N)C(=O)N[C@@H](Cc1ccc(O)cc1)C(=O)N[C@H](C(=O)N[C@@H](Cc1c[nH]cn1)C(=O)N1CCC[C@H]1C(=O)N[C@@H](Cc1ccccc1)C(=O)O)[C@@H](C)CC [Nle1-AngIV, reference compound] (H-[Nle]YIHPF-OH; N-terminus and C-terminus assumed)
mean spine numbers per 50 μm dendrite length (c-Met receptor [1]; [5]): 20.0
mean spine numbers per 50 μm dendrite length (c-Met receptor [1]; [6]): 12.1
mean frequency of AMPA-mediated mEPSCs (hippocampal neurons [2]; 10-12 M, vehicle 3.06±0.23 Hz): 5.27±0.43 Hz
average spine head width (hippocampal neurons [3]): 0.87 μm

HGF: recombinant hepatocyte growth factor (R&D Systems), ligand of c-Met
c-Met phosphorylation vs control (aCSF) (c-Met receptor [4]; [7]): not statistically different from control treated slices
c-Met phosphorylation vs control (aCSF) (c-Met receptor [4]; [8]): increased c-Met phosphorylation
mean spine numbers per 50 μm dendrite length (c-Met receptor [1]; [5]): 20.6
mean spine numbers per 50 μm dendrite length (c-Met receptor [1]; [6]): 12.4
mean mEPSC frequency (hippocampal neurons [2]; [9]): 7.09±0.53
mean mEPSC frequency (hippocampal neurons [2]; [10]): 9.66±0.20

CCCCCC(=O)N[C@@H](Cc1ccc(O)cc1)C(=O)N[C@H](C(=O)NCCCCCC(N)=O)[C@@H](C)CC [Dihexa, N-hexanoic-Tyr-Ile-(6)-aminohexanoic amide] (Hexanoyl-Tyr-Ile-[Ahx]-NH2)
c-Met phosphorylation vs control (aCSF) (c-Met receptor [4]; [7]): not statistically different from control treated slices
c-Met phosphorylation vs control (aCSF) (c-Met receptor [4]; [8]): increased c-Met phosphorylation
mean spine numbers per 50 μm dendrite length (c-Met receptor [1]; [5]): 21.8
mean spine numbers per 50 μm dendrite length (c-Met receptor [1]; [6]): 12.0
mean mEPSC frequency (hippocampal neurons [2]; [9]): 6.75±0.99
mean mEPSC frequency (hippocampal neurons [2]; [10]): 8.25±0.56
average spine head width (hippocampal neurons [3]): 0.80 μm
